Test results taken from ChEMBL document CHEMBL1126519, “Addition of amines to methyl 3-dehydroquinate and 3-dehydroshikimate” (Bioorg Med Chem Lett, 1993).

Test: pKA value in aqueous solution
Conditions: aqueous solution
With `NCc1ccccn1` the pKa was 8.62. With `NCCc1ccccn1` the pKa was 9.52. `NCCc1ccccc1` [PHENETHYLAMINE] showed a pKa of 9.08. For `CN(C)c1ccc(N)cc1`, the pKa was 6.71. For `COC(=O)C(CCCCN)NC(=O)OC(C)(C)C` (stereo not drawn), the pKa was 10.8. `COC(=O)CN` showed a pKa of 7.73. With `COC(=O)C(N)CCCCNC(=O)OC(C)(C)C` (stereo not drawn) the pKa was 8.9.

Same assay, conditions: buffer
Work on `Nc1ccccn1` [2-AMINOPYRIDINE] yielded a pKA of 7.6.
